Common to all, as to assay: relative viability (nuclei count vs DMSO), 5 days (fraction); higher = more cells survive
Compound in assay [1]: CC1CC(=O)N(C2=CN=C(N=C2N1C3CCCC3)NC4=C(C=C(C=C4)C(=O)NC5CCN(CC5)C)OC)C [NPK76-II-72-1] + Cc1cc(Nc2cc(N3CCN(C)CC3)nc(Sc3ccc(NC(=O)C4CC4)cc3)n2)n[nH]1 [Tozasertib] (partner 0.1 µM)
The method, boiled down: (§1)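 Five library-drug doses in √10 steps were combined with a fixed anchor-drug dose, or a single drug was given alone, by pin tool to lung cancer cell lines in 1536-well plates the day after seeding. Nuclei were stained and counted after 5 days. Relative viability is the nuclei count in treated wells over that in vehicle wells, taken as the median of duplicate plates.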

Compound in the assay “BI-2536 + Bortezomib”: CC[C@@H]1C(=O)N(C)c2cnc(Nc3ccc(C(=O)NC4CCN(C)CC4)cc3OC)nc2N1C1CCCC1 [BI-2536] + CC(C)C[C@H](NC(=O)[C@H](Cc1ccccc1)NC(=O)c1cnccn1)B(O)O [Bortezomib] (partner 0.002 µM)
The method, boiled down:
as §1

Compound in the assay “BI-2536 + Foretinib”: CC[C@@H]1C(=O)N(C)c2cnc(Nc3ccc(C(=O)NC4CCN(C)CC4)cc3OC)nc2N1C1CCCC1 [BI-2536] + COc1cc2c(Oc3ccc(NC(=O)C4(C(=O)Nc5ccc(F)cc5)CC4)cc3F)ccnc2cc1OCCCN1CCOCC1 [Foretinib] (partner 0.25 µM)
The method, boiled down: as §1

Compound in the assay “BI-2536 + Linsitinib”: CC[C@@H]1C(=O)N(C)c2cnc(Nc3ccc(C(=O)NC4CCN(C)CC4)cc3OC)nc2N1C1CCCC1 [BI-2536] + C[C@]1(O)C[C@@H](c2nc(-c3ccc4ccc(-c5ccccc5)nc4c3)c3c(N)nccn32)C1 [Linsitinib] (partner 1 µM)
The method, boiled down: as §1

Turning to HCC-366, the relative viability in assay [1] (first compound 0.01 µM) amounted to 0.204; in assay [1] (first compound 0.03162 µM) it was 0.156; in assay [1] (first compound 0.1 µM) it was 0.111; in assay [1] (first compound 0.3162 µM), 0.118; in assay [1] (first compound 1 µM), 0.169; with BI-2536 + Bortezomib (first compound 0.01 µM), 1.09. The relative viability was 1.1 with BI-2536 + Bortezomib (first compound 0.03162 µM); 0.155 with BI-2536 + Bortezomib (first compound 0.1 µM); 0.0158 with BI-2536 + Bortezomib (first compound 0.3162 µM); 0.0163 with BI-2536 + Bortezomib (first compound 1 µM); 0.959 with BI-2536 + Foretinib (first compound 0.01 µM); 0.847 in the assay with BI-2536 + Foretinib (first compound 0.03162 µM). For the same cell line, the relative viability in the assay with BI-2536 + Foretinib (first compound 0.1 µM) came out at 0.225; in the assay with BI-2536 + Foretinib (first compound 0.3162 µM) it was 0.0291; with BI-2536 + Foretinib (first compound 1 µM) it was 0.0206; in the assay with BI-2536 + Linsitinib (first compound 0.01 µM), 0.648; in the assay with BI-2536 + Linsitinib (first compound 0.03162 µM), 0.739; with BI-2536 + Linsitinib (first compound 0.1 µM), 0.535. The relative viability in the assay with BI-2536 + Linsitinib (first compound 0.3162 µM) was 0.0173; with BI-2536 + Linsitinib (first compound 1 µM), 0.0162.

NCI-H727: the relative viability in assay [1] (first compound 0.01 µM) worked out at 0.641; in assay [1] (first compound 0.03162 µM), 0.616; in assay [1] (first compound 0.1 µM), 0.545; in assay [1] (first compound 0.3162 µM), 0.539; in assay [1] (first compound 1 µM), 0.649; in the assay with BI-2536 + Bortezomib (first compound 0.01 µM), 0.807. Besides, the relative viability with BI-2536 + Bortezomib (first compound 0.03162 µM) was 0.833; with BI-2536 + Bortezomib (first compound 0.1 µM), 0.656; with BI-2536 + Bortezomib (first compound 0.3162 µM), 0.267; in the assay with BI-2536 + Bortezomib (first compound 1 µM), 0.239; with BI-2536 + Foretinib (first compound 0.01 µM), 0.818; in the assay with BI-2536 + Foretinib (first compound 0.03162 µM) it was 0.888. Besides, the relative viability with BI-2536 + Foretinib (first compound 0.1 µM) stood at 0.711; in the assay with BI-2536 + Foretinib (first compound 0.3162 µM), 0.515; with BI-2536 + Foretinib (first compound 1 µM), 0.371; in the assay with BI-2536 + Linsitinib (first compound 0.01 µM) it was 0.416; in the assay with BI-2536 + Linsitinib (first compound 0.03162 µM), 0.268; with BI-2536 + Linsitinib (first compound 0.1 µM) it was 0.281. Also, the relative viability with BI-2536 + Linsitinib (first compound 0.3162 µM) amounted to 0.282; with BI-2536 + Linsitinib (first compound 1 µM), 0.211.

Consider LU99A, for which the relative viability in assay [1] (first compound 0.01 µM) came out at 0.318; in assay [1] (first compound 0.03162 µM), 0.309; in assay [1] (first compound 0.1 µM), 0.309; in assay [1] (first compound 0.3162 µM), 0.271; in assay [1] (first compound 1 µM), 0.283; with BI-2536 + Bortezomib (first compound 0.01 µM) it was 1.04. Moreover, the relative viability in the assay with BI-2536 + Bortezomib (first compound 0.03162 µM) was determined as 1.12; with BI-2536 + Bortezomib (first compound 0.1 µM), 0.244; with BI-2536 + Bortezomib (first compound 0.3162 µM), 0.19; in the assay with BI-2536 + Bortezomib (first compound 1 µM), 0.193; in the assay with BI-2536 + Foretinib (first compound 0.01 µM), 0.716; in the assay with BI-2536 + Foretinib (first compound 0.03162 µM), 0.812. For the same cell line, the relative viability with BI-2536 + Foretinib (first compound 0.1 µM) came out at 0.329; in the assay with BI-2536 + Foretinib (first compound 0.3162 µM) it was 0.222; with BI-2536 + Foretinib (first compound 1 µM), 0.175; in the assay with BI-2536 + Linsitinib (first compound 0.01 µM), 0.593; in the assay with BI-2536 + Linsitinib (first compound 0.03162 µM), 0.534; with BI-2536 + Linsitinib (first compound 0.1 µM), 0.472. The figures for the relative viability with BI-2536 + Linsitinib (first compound 0.3162 µM) and in the assay with BI-2536 + Linsitinib (first compound 1 µM) were 0.172 and 0.194, respectively.

As for NCI-H647, the relative viability in assay [1] (first compound 0.01 µM) was found to be 0.315; in assay [1] (first compound 0.03162 µM) it was 0.283; in assay [1] (first compound 0.1 µM), 0.423; in assay [1] (first compound 0.3162 µM), 0.257; in assay [1] (first compound 1 µM), 0.325; with BI-2536 + Bortezomib (first compound 0.01 µM) it was 0.799. For the same cell line, the relative viability was found to be 0.888 with BI-2536 + Bortezomib (first compound 0.03162 µM); 0.457 with BI-2536 + Bortezomib (first compound 0.1 µM); 0.0877 with BI-2536 + Bortezomib (first compound 0.3162 µM); 0.087 with BI-2536 + Bortezomib (first compound 1 µM); 1.35 with BI-2536 + Foretinib (first compound 0.01 µM); 1.16 with BI-2536 + Foretinib (first compound 0.03162 µM). Moreover, the relative viability amounted to 0.649 with BI-2536 + Foretinib (first compound 0.1 µM); 0.101 in the assay with BI-2536 + Foretinib (first compound 0.3162 µM); 0.128 in the assay with BI-2536 + Foretinib (first compound 1 µM); 1.15 with BI-2536 + Linsitinib (first compound 0.01 µM); 1.15 with BI-2536 + Linsitinib (first compound 0.03162 µM); 1.11 in the assay with BI-2536 + Linsitinib (first compound 0.1 µM). The relative viability in the assay with BI-2536 + Linsitinib (first compound 0.3162 µM) amounted to 0.108; in the assay with BI-2536 + Linsitinib (first compound 1 µM) it was 0.0822.

The values are drawn from the supplement of paper PMC10307832.
